In BigSolDB 2.1:

N#Cc1ccncc1
solubility (mole fraction)
Details	278.15 K	283.15 K	288.15 K	293.15 K	298.15 K	303.15 K	308.15 K	313.15 K	318.15 K
in acetone	0.162	0.186	0.217	0.246	0.281	0.318	0.351	0.398	0.444
in ethanol	0.0165	0.0242	0.035	0.0506	0.073	0.101	0.142	0.19	0.261
in methanol	0.0384	0.0504	0.0656	0.0854	0.108	0.139	0.179	0.225	0.283
in n-propanol	0.042	0.0556	0.0718	0.0926	0.118	0.147	0.184	0.237	0.303
in water	0.00264	0.00327	0.004	0.00494	0.00603	0.00727	0.00875	0.0104	0.0123
